This note sets out measurements from patent publication US12098154B2, “Inhibitors of cyclin-dependent kinases” (Dana-Farber Cancer Institute, Inc., priority 2015, dated 2024).

Like-named read-outs stand apart in the source and are kept apart here.

For assay [1], the target named is CDK2/CycA (Homo sapiens, UniProt P24941). Briefly: CDK2/CycA inhibition (Tables A1, A2). The assay is classed as biochemical.
The target in assay [2] is CDK7/CycH (Homo sapiens, UniProt P50613). Briefly: CDK7/CycH inhibition (Tables A1, A2). The assay is classed as biochemical.
Sequence of CDK7/CycH (P50613 whole entry): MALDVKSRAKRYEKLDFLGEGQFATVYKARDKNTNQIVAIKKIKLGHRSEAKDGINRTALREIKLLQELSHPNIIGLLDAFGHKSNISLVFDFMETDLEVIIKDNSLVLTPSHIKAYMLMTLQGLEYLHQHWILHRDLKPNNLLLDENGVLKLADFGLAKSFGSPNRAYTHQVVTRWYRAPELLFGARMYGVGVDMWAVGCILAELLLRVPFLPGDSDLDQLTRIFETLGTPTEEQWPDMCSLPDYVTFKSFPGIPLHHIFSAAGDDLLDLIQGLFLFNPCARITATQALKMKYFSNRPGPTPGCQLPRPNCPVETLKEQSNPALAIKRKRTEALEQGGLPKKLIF
Sequence of CDK7/CycH (P51946 whole entry partner): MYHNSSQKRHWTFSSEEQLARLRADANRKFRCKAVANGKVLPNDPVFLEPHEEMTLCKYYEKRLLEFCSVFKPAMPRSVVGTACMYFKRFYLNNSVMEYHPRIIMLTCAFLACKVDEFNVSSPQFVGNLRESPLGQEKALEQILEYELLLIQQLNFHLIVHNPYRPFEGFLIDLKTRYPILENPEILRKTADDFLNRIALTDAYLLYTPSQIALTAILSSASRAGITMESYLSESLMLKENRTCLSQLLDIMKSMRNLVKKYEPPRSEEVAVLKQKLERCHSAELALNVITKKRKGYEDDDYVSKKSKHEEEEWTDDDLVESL
Assay [3] has as its system Jurkat cells. The experiment in a line: Jurkat proliferation assay (CellTiter-Glo). Conditions: for IC50: Homo sapiens, Jurkat. In kind it is cell-based. How it is done: Jurkat cells were seeded at a density of 25,000 cells/well in 96-well plates. Cells were then treated with the indicated compounds in a 10-pt dose escalation format from 1 nM to 10 μM or DMSO control for 72 hours. After 72 hours, the cells were assayed using CellTiter-Glo Luminescent Cell Viability Assay (Promega) to determine cell viability by measuring the amount of ATP present in each sample cell population, which is an indicator of cell metabolic activity. […] All data points were performed in biological triplicate. Error bars are +/−SD.
Jurkat cells were seeded at a density of 25,000 cells/well in 96-well plates. Cells were then treated with the indicated compounds in a 10-pt dose escalation format from 1 nM to 10 μM or DMSO control for 72 hrs. After 72 hrs, cells were assayed using CellTiter-Glo Luminescent Cell Viability Assay (Promega) to determine cell viability by measuring the amount of ATP present in each sample cell population, which is an indicator of cell metabolic activity. […] All data points were performed in biological triplicate. Error bars are +/−SD.
(In general: Cellular ATP, detected with luciferase, serves as a proxy for viable cell number.)

Assay [4] addresses T1, CDK12 (Homo sapiens, UniProt Q9NYV4).
T1 construct: endogenous in cells; host or cells: Jurkat
Briefly: Pulldown assay with biotin-THZ1, blot for Cyclin K. The assay is classed as cell-based. The settings on record: Jurkat cells treated with 1 uM or 200 nM. As to the method: Specifically. […] Decreased pulldown of cyclin K with biotin-THZ1 indicated a loss of CDK12 binding.
(§1) 6 hours after treatment, cells were washed and harvested by resuspending in lysis buffer (50 mM Hepes pH 7.4, 150 mM NaCl, 1% NP-40, 5 mM EDTA, protease and phosphatase inhibitors) and lysing on ice 30 minutes. Lysates were cleared by centrifugation at 15,000 rpm 30 minutes. Biotin-labeled THZ1 was added to 1 uM to lysates and rotated at 4° C. overnight. Streptavidin-agarose beads were washed and 30 uL slurry was added to each lysate and rotated for 1 hour at 4° C. Beads were washed 5 times with lysis buffer and 50 uL 2×LDS buffer was added to each sample. Samples were boiled and equal volume of protein was loaded onto gel. Gel was transferred to nitrocellulose and blotted for Cyclin K and Cyclin H.

In assay [5] the test system is Pol II Ser2 phosphorylation and MCL1 levels. Briefly: Washout expression assay (western blot). In kind it is cell-based. The settings on record: Jurkat cells, 1 uM, 4 hours, 6 hours. How it is done:
4 hours after treatment, cells were either not treated or washed three times with RPMI media to remove all compound. Cells were replated and allowed to grow for 6 hours. Cells were harvested, washed 3 times with PBS and resuspended in RIPA buffer (25 mM Tris-HCl (pH 7.6), 150 mM NaCl, 1% NP-40, 1% sodium deoxycholate, 0.1% SDS). Equal amount of protein was loaded onto gel and blotted for Pol II Ser2 (Millipore 04-1571), total pol II (Santa Cruz 17798), Tubulin (Cell Signaling 11H10) or MCL1 (Cell Signaling 4572S)

Assay [6] relates to HAP1 cells. Briefly: HAP1 cell proliferation assay, wild type vs CDK12 C1039S/CDK13 C1017S. The assay is classed as cell-based. Conditions: 72 hrs proliferation. As to the method:
Double mutant cells are 4-fold less sensitive to E17 compared to wild type cells indicating rescue of CDK12/13 inhibition-induced proliferation defects. HAP1 cells were seeded at a density of 12,000 cells/well in 96-well plates. Twenty-four hours later, cells were treated with the indicated compounds in a 10-pt dose escalation format from 1 nM to 10 μM or DMSO control for 72 hours. After 72 hours, the cells were assayed using CellTiter-Glo Luminescent Cell Viability Assay (Promega) to determine cell viability by measuring the amount of ATP present in each sample cell population, which is an indicator of cell metabolic activity. Results were graphed as fraction of the DMSO control at 72 hours. All data points were performed in biological triplicate. Error bars are +/−SD.
Genome Editing: The CRISPR/Cas9 system was used to mutate the endogenous CDK12 and CDK13 loci to encode for CDK12 C1039S and CDK13 C1017S, both of which are putative CDK12/13 inhibitor-refractory mutants. Target-specific oligonucleotides were cloned into pX330, which carries a codon-optimized version of Cas9 and was further modified to express GFP for identifying transfectants. […]

Assay [7] has as its target CDK9/CycT (Homo sapiens, UniProt P50750). The experiment in a line: CDK9/CycT inhibition (Tables A1, A2). The assay is classed as biochemical.
Assay [8] concerns Jurkat cells. Briefly: Growth assay with and without washout. In kind it is cell-based. Conditions: 1 uM, 4 hours treatment, assayed 68 hours after washout. As to the method: Cells were treated with each compound for 4 hours and either no washout (no washout) or had compound removed by washing cells with media (washout). Sixty-eight (68) hours after washout, the cells were assayed for antiproliferative effects. Error bars indicate +/−SD.
4 hours after treatment, cells were either not treated or washed three times with RPMI media to remove all compound. Cells were replated and allowed to grow for 68 hours. Cells were assayed using celltiter glo (Promega) to determine cell viability by measuring the amount of ATP present, which is an indicator of cell metabolic activity. Results are graphed as luminescent values (FIG. 1).

The target of assay [9] is T2, CDK7 (Homo sapiens, UniProt P50613).
T2 construct: endogenous in cells; host or cells: Jurkat
T2 sequence (P50613 2-346 limits assumed): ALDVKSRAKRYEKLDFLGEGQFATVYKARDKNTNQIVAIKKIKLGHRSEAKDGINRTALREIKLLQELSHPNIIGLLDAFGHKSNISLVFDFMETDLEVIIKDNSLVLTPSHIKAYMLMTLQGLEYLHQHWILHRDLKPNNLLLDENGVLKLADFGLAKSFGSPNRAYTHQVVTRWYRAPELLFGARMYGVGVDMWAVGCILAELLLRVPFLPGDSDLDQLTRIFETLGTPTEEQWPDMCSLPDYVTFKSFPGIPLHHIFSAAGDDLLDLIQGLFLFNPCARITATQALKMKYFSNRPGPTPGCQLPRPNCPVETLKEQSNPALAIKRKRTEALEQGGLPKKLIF
T2 sequence (P51946 whole entry partner): as the sequence (P51946 whole entry partner) above
T2 sequence (P51948 whole entry partner): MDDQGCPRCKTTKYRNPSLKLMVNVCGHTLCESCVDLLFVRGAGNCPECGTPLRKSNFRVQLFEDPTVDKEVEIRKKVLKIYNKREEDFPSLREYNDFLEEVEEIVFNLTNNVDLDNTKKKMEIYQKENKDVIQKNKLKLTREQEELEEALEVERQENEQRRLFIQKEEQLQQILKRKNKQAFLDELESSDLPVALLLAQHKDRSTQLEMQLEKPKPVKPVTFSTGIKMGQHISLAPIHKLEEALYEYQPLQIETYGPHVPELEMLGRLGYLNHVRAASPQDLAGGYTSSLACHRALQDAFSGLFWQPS
Briefly: Pulldown assay with biotin-THZ1, blot for Cyclin H. In kind it is cell-based. Conditions: Jurkat cells treated with 1 uM or 200 nM. As to the method: Compounds E9 and E17 were able to block pulldown of cyclin K at 1 μM and 200 nM. Specifically. […] Decreased pulldown of cyclin K with biotin-THZ1 indicated a loss of CDK12 binding.
as §1

Sequence of CDK9/CycT (P50750 whole entry): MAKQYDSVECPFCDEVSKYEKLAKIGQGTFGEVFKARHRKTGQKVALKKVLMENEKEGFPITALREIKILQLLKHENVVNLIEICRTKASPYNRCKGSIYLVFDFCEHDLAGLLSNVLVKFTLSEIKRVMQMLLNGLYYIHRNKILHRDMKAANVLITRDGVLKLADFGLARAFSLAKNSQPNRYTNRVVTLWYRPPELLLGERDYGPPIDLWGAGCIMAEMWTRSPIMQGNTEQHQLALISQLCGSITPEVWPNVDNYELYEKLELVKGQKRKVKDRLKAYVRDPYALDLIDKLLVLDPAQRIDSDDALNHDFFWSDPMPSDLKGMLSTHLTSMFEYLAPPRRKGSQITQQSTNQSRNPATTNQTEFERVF
Sequence of CDK9/CycT (O60563 whole entry partner): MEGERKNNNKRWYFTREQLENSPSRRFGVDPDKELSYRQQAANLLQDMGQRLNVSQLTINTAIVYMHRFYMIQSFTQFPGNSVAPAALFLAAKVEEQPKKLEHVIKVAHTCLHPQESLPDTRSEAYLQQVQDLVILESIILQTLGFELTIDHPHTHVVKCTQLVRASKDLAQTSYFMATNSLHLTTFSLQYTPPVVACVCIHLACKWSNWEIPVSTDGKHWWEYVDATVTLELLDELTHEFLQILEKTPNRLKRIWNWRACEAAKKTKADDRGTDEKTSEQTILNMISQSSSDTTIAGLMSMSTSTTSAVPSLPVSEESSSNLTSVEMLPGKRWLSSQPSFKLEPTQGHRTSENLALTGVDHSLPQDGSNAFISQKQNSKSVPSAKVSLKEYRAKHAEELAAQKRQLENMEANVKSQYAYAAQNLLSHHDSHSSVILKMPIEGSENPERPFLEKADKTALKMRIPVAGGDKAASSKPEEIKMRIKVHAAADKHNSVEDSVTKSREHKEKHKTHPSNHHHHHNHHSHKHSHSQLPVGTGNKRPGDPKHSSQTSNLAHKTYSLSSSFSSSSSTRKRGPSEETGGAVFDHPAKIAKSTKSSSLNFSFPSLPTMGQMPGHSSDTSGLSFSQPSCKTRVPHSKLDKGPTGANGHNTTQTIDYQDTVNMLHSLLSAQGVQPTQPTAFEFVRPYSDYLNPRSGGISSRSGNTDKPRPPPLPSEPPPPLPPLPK
T1 sequence (Q9NYV4 whole entry): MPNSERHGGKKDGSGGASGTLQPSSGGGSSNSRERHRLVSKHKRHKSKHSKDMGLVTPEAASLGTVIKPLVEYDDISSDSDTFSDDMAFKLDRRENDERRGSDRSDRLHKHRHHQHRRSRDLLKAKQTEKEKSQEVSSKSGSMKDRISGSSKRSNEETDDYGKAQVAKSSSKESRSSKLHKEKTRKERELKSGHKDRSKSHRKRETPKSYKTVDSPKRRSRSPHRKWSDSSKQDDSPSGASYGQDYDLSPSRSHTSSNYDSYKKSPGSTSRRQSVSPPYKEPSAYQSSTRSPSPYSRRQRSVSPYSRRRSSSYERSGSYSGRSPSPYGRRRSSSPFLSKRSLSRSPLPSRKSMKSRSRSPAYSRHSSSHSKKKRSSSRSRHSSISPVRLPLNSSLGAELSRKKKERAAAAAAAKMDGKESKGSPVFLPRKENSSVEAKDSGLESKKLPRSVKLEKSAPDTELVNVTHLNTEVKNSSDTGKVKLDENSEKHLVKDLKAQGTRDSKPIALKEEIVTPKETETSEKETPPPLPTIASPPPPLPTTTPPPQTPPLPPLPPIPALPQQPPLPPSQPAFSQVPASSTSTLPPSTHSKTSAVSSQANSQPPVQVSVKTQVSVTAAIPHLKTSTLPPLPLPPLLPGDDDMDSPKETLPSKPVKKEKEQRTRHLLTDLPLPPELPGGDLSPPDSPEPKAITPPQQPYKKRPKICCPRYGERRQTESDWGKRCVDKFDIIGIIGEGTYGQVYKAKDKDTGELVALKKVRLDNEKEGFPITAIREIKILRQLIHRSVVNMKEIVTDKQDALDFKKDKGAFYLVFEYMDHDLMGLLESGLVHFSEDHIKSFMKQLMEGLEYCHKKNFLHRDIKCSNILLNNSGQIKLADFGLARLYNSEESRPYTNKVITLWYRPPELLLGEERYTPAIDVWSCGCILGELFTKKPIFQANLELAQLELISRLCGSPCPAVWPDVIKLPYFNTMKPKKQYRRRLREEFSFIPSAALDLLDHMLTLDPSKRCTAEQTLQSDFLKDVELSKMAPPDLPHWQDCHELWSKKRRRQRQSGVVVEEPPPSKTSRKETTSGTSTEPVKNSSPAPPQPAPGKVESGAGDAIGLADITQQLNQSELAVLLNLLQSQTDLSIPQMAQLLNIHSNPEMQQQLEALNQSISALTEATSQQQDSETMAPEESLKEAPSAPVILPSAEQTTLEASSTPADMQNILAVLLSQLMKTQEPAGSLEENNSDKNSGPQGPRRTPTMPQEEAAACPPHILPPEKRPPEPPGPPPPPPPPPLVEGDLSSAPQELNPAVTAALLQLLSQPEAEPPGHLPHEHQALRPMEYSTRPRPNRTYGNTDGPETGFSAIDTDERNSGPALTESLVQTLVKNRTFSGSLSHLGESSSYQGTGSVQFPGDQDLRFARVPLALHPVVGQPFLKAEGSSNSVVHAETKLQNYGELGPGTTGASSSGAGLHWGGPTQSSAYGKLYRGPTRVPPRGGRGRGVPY
T1 sequence (O75909 whole entry partner): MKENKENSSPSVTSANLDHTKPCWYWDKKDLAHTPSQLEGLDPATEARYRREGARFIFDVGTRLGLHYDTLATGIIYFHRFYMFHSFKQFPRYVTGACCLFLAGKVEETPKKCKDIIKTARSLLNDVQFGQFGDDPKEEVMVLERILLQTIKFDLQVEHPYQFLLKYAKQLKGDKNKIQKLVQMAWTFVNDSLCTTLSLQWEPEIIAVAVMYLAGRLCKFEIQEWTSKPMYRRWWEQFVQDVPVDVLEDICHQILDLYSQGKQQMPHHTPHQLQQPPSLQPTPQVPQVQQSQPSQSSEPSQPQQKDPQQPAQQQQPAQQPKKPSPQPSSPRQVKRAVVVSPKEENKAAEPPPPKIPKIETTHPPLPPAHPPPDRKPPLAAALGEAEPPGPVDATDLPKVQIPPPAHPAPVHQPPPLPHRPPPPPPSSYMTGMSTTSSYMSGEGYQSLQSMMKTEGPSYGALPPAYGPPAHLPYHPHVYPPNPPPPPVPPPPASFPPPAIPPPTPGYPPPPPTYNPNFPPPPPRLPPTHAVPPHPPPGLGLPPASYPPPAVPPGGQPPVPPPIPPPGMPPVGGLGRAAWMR

Take `C=CC(=O)Nc1cccc(Nc2nc(N[C@H]3CC[C@H](N(C)C)CC3)nc3c(CC)cnn23)c1` [SB1-E-17, N-(3-(2-((1r,4r)-4-(Dimethylamino)cyclohexylamino)-8-ethylpyrazolo[1,5-a][1,3,5]triazin-4-ylamino)phenyl)acrylamide]: the IC50 is 247 nM in assay [1]; 1020 nM in assay [2]; < 100 nM in assay [3] (72 h, CellTiter-Glo, read-out: IC50 on Jurkat T-ALL cell proliferation); 60.6 nM in [3] (read-out: Jurkat IC50); 171 nM in assay [7]. Further, the “Mode of inhibition of Jurkat T-ALL cell proliferation” value in assay [3] is given as “irreversiably inhibit”. Besides, in assay [4], the “Pulldown of Cyclin K by biotin-THZ1 (CDK12 binding)” value is “blocks the pulldown of Cyclin K”. In assay [5], the “Effect on Polymerase II Serine 2 phosphorylation and MCL1 levels with and without washout” value is given as “irreversible effect”. The “Loss of sensitivity of CDK12 C1039S/CDK13 C1017S HAP1 cells compared to wild type HAP1 cells” value in [6] came out at 4 fold. Besides, in assay [8], the “Inhibition of Jurkat cell viability with and without washout” value is on record as “irreversibly inhibit Jurkat cell viability”. Further, in assay [9], the “Pulldown of Cyclin H by biotin-THZ1 (CDK7 binding)” value is on record as “not able to bind to CDK7”.
